Laboratory results reported in patent US10562920B2, “Ln(III) and Ga(III) metallacrown complexes” (The Regents of the University of Michigan, priority 2015, dated 2020).
“And” between values parts separate entries of the source, which are not always exact repeats. Equal values may be shown once. Marks after values point to notes of the source that are not given here.

Assays:
Type in all cases: physicochemical
[1] = Quantum yields by absolute method using an integration sphere; settings: for QLn^L/%: Ga6Ln(shi)9, solid state
Protocol: (§1) Luminescence data were collected on samples placed into 2.4 mm i.d. quartz capillaries or quartz Suprasil cells. Emission and excitation spectra were measured on a Horiba-Jobin-YvonFluorolog 3 spectrofluorimeter equipped with either a visible photomultiplier tube (PMT) (220-800 nm, R928P; Hamamatsu), a NIR solid-state InGaAs detector cooled to 77 K (800-1600 nm, DSS-IGA020L; Jobin-Yvon), or NIR PMTs (950-1450 nm, H10330-45; 950-1650 nm, H10330-75; Hamamatsu). All spectra were corrected for instrumental functions. Luminescence lifetimes were determined under excitation at 355 nm provided by a Nd:YAG laser (YG 980; Quantel), while the signal was detected in the NIR by the aforementioned PMT (H10330-75). The output signal from the detectors was then fed to a 500 MHz bandpass digital oscilloscope (TDS 754C; Tektronix) and then transferred to a PC for treatment with Origin 8®. Luminescence lifetimes are averages of at least three independent measurements. Quantum yields were determined with a Fluorolog 3 spectrofluorimeter according to an absolute method using an integration sphere (GMP SA). Each sample was measured several times under slightly different experimental conditions. Estimated experimental error for quantum yields determination is 10%.

[2] = Luminescence lifetimes under excitation at 355 nm; settings: for τobs/μs: Ga8Ln2(shi)8, solid state
Protocol: as §1

[3] = Emission spectra under ligand excitation at 350 nm; settings: Ga8Ln2(shi)8, solid state
Protocol: as §1
Using an excitation wavelength of 350 nm, both visible and NIR emission arising from f-f transitions of different lanthanide ions can be observed (FIG. 13). In general, quantum yields are lower for Ga8Ln2(shi)8 MCs compared to […] (Table 3) except for Ho^3+ analogues which quantum yield is increased by 1.65 times reaching 3.3(1)·10^−3%.

[4] = Hydration number q from lifetimes in deuterated and protic solvents
Text: One parameter that can be obtained from the recording of luminescence lifetimes is the hydration number q. […] This non-zero q value is particularly detrimental for the intensity of the luminescence (and to the corresponding quantum yield values) of NIR-emitting lanthanides since the overtones of high-energy vibrations of the solvent molecules create a route for non-radiative deactivation.

[5] = Ligand triplet state from phosphorescence of Gd3+ analogues; settings: for ΔE (cm^−1), energy gap between ligand triplet state and Ln3+ emissive state: T1 = 22 170 cm^−1, Ga4Ln(shi)4
Protocol: as §1
Phosphorescence can be observed by recording the signal emitted from Ga4Gd(shi)4 in time-resolved mode in the solid state at 77K upon excitation at 350 nm and using a 200 μS delay after the excitation flash (FIG. 9). The 0-0 component of this band represents the energy level of the ligand's triplet state (T1=22,170 cm^−1, 451 nm) which is attributed to the energy level responsible for the main contribution of the transfer to the Ln^3+. The T1 level is sufficiently high in energy to populate the excited states of a wide range of visible and NIR-emitting Ln^3+.
Since the Ga8Ln2(shi)8 dimer compounds were insoluble in all solvents, the solid state photophysical data alone were collected. As with the Ga4Gd(shi)4 compound, the Ga8Gd2(shi)8 complex may be used to examine the ligand-based photophysical properties. […] The solid state ligand phosphorescence was obtained at 77 K using an excitation wavelength of 350 nm and a 100 μs delay (FIG. 11). The profile of the phosphorescence is similar to that of Ga4Gd(shi)4 (FIG. 9), which was expected, since both compounds are formed by the same framework ligand, H3shi. The 0-0 transition was determined to be located at 455 nm, or 21 978 cm^−1. This triplet state energy is slightly lower than that of the Ga4Gd(shi)4 compound (22 170 cm^−1), but still is sufficiently high in energy to sensitize visible (Dy^3+, Tb^3+, Sm^3+) and/or NIR emitting (Dy^3+, Sm^3+, Ho^3+, Yb^3+, Pr^3+, Nd^3+, Er^3+) lanthanides.

[6] = Ga8Ln2(shi)8, solid state, excitation 350 nm
[7] = from kCH3OH − kCD3OD, equations of footnotes b, c, e, g
[8] = solid state, 77 K, excitation 350 nm

In the case of “[Ga8Yb2(shi)8(isophthalate)4(DMF)6].8DMF.3H2O”, the “QLn^L (%) (NIR)” value [1, 6] is reported as 2.43(6) %, the τobs/μs [2] is reported as 30.5(1) μs and the λem/nm [3] is reported as 980 nm.
For “[Ga4Sm(shi)4(C6H5CO2)4(C5H5N)(CH3OH)].C5H6N.C5H5N.CH3OH”, the “QLn^L (%) (NIR)” value ([1]; Ga4Ln(shi)4, CD3OD) was 0.298(1) %, the “QLn^L (%) (visible)” value ([1]; Ga4Ln(shi)4, CD3OD) was 2.33(5) % and the “QLn^L (%) (NIR)” value ([1]; Ga4Ln(shi)4, CH3OH) was 2.65(6) · 10^−2%. For the same substance, the “QLn^L (%) (visible)” value ([1]; Ga4Ln(shi)4, CH3OH) was 0.252(1) %, the “QLn^L (%) (NIR)” value ([1]; Ga4Ln(shi)4, Solid) was 0.450(4) % and the “QLn^L (%) (visible)” value ([1]; Ga4Ln(shi)4, Solid) was 2.46(8) %. For the same substance, the “τobs (μs)” value ([2]; Ga4Ln(shi)4, CD3OD) was 255(1) μs, the “τobs (μs)” value ([2]; Ga4Ln(shi)4, CH3OH) was 27.6(1) μs and the “τobs (μs)” value ([2]; Ga4Ln(shi)4, Solid) was 148(1) μs. For the same substance, the “q (hydration number)” value [4, 7] was 0.8^b and the “ΔE (cm^−1), energy gap between ligand triplet state and Ln3+ emissive state” value [5] was 4 270 cm^−1.
For “[DyGa4(shi)4(H2shi)2(C5H5N)4(NO3)].(C5H5N)2 [Ga4Dyshi6]”, the “QLn^L/% VIS (only Dy)” value ([1]; solid state Ga4Ln(shi)6, only Dy) was 0.222(6) (only Dy) %, the “QLn^L/% VIS (total)” value ([1]; solid state Ga4Ln(shi)6, total) was 0.308(8) (total) % and the τ/μs ([2]; solid state Ga4Ln(shi)6) was 3.36(6) μs.
For “[Ga4Tb(shi)4(C6H5CO2)4(C5H5N)(CH3OH)].C5H6N.C5H5N.CH3OH”, the “QLn^L (%) (visible)” value ([1]; Ga4Ln(shi)4, CD3OD) was 28.6(1) %, the “QLn^L (%) (visible)” value ([1]; Ga4Ln(shi)4, CH3OH) was 23.7(3) % and the “QLn^L (%) (visible)” value ([1]; Ga4Ln(shi)4, Solid) was 34.7% and 34.7(1) %. For the same substance, the “τobs (μs)” value ([2]; Ga4Ln(shi)4, CD3OD) was 1960(10) μs, the “τobs (μs)” value ([2]; Ga4Ln(shi)4, CH3OH) was 1510(10) μs and the “τobs (μs)” value ([2]; Ga4Ln(shi)4, Solid) was 1080(10) μs. For the same substance, the “q (hydration number)” value [4, 7] was 1.2^c, the “q (hydration number)” value ([4]; qTb = 10.0 × (kCH3OH − kCD3OD − 0.06), footnote d) was 0.9^d and the “ΔE (cm^−1), energy gap between ligand triplet state and Ln3+ emissive state” value [5] was 1 770 cm^−1.
For “[TbGa4(shi)4(H2shi)2(C5H5N)4(NO3)].(C5H5N)2 [Ga4Tbshi6]”, the “QLn^L/% VIS” value ([1]; solid state Ga4Ln(shi)6) was 11.3(5) % and the τ/μs ([2]; solid state Ga4Ln(shi)6) was 509(7) μs.
With “[Ga4Gd(shi)4(C6H5CO2)4(C5H5N)(CH3OH)].C5H6N.C5H5N.CH3OH” the “ligand triplet state (T1, 0-0 component of phosphorescence), wavelength” value [5, 8] was 451 nm and the “ligand triplet state energy (T1, 0-0 component of phosphorescence)” value [5, 8] was 22,170 cm^−1 and 22 170 cm^−1.
For “[HoGa4(shi)4(C6H5CO2)4(C5H5N)(CH3OH)].C5H6N.C5H5N.CH3OH [Ga4Ho(shi)4]”, the “QLn^L (%) (NIR)” value ([1]; Ga4Ln(shi)4, Solid) was 2.0(2)·10^−3%, the “τobs (μs)” value ([2]; Ga4Ln(shi)4, Solid) was 0.029(1) μs and the “ΔE (cm^−1), energy gap between ligand triplet state and Ln3+ emissive state” value [5] was 6 670 cm^−1.
In the case of “[TmGa4(shi)4(C6H5CO2)4(C5H5N)(CH3OH)].C5H6N.0.5C5H5N [Ga4Tm(shi)4]”, the “QLn^L (%) (visible)” value ([1]; Ga4Ln(shi)4, Solid) is reported as 0.02(1)^f %, the “τobs (μs)” value ([2]; Ga4Ln(shi)4, Solid) is reported as 1.47(1) μs and the “ΔE (cm^−1), energy gap between ligand triplet state and Ln3+ emissive state” value [5] is reported as 820 cm⁻¹.
With “[HoGa4(shi)4(H2shi)2(C5H5N)4(NO3)].(C5H5N)2 [Ga4Hoshi6]” the τ/μs ([2]; solid state Ga4Ln(shi)6) was 0.032(1) μs.
In the case of “[YbGa4(shi)4(C6H5CO2)4(C5H5N)(CH3OH)].C5H6N.C5H5N.CH3OH [Ga4Yb(shi)4]”, the “QLn^L (%) (NIR)” value ([1]; Ga4Ln(shi)4, CD3OD) is reported as 4.29(1) %, the “QLn^L (%) (NIR)” value ([1]; Ga4Ln(shi)4, CH3OH) is reported as 0.26(1) % and the “QLn^L (%) (NIR)” value ([1]; Ga4Ln(shi)4, Solid) is reported as 5.88(2) %. The “τobs (μs)” value ([2]; Ga4Ln(shi)4, CD3OD) was 36.6(1) μs, the “τobs (μs)” value ([2]; Ga4Ln(shi)4, CH3OH) was 2.06(4) μs and the “τobs (μs)” value ([2]; Ga4Ln(shi)4, Solid) was 55.7(3) μs. For the same substance, the “q (hydration number)” value [4, 7] was 0.7^g and the “ΔE (cm^−1), energy gap between ligand triplet state and Ln3+ emissive state” value [5] was 11 870 cm^−1.
In the case of “[NdGa6(shi)7(Hshi)(H2shi)(C6H16N)3(C5H5N)2].7H2O [Ga6Nd(shi)9]”, the “QLn^L/%” value [1] is reported as 0.171(5) % and the τ/μs ([2]; Ga6Ln(shi)9, solid state) is reported as 0.71(1) μs.
In the case of “[ErGa4(shi)4(C6H5CO2)4(C5H5N)(CH3OH)].C5H6N.0.5C5H5N [Ga4Er(shi)4]”, the “QLn^L (%) (NIR)” value ([1]; Ga4Ln(shi)4, CD3OD) is reported as 4.5(3)·10^−2%, the “QLn^L (%) (NIR)” value ([1]; Ga4Ln(shi)4, Solid) is reported as 4.4(1)·10^−2% and the “τobs (μs)” value ([2]; Ga4Ln(shi)4, CD3OD) is reported as 1.74(1) μs. For the same substance, the “τobs (μs)” value ([2]; Ga4Ln(shi)4, Solid) was 6.75(3) μs and the “ΔE (cm^−1), energy gap between ligand triplet state and Ln3+ emissive state” value [5] was 15 470 cm^−1.
For “[YbGa6(shi)7(Hshi)(H2shi)(C6H16N)3(C5H5N)2].8H2O [Ga6Yb(shi)9]”, the “QLn^L/%” value [1] was 0.65(3) % and the τ/μs ([2]; Ga6Ln(shi)9, solid state) was 7.26(2) μs.
With “[Ga8Dy2(shi)8(isophthalate)4(DMF)6].8DMF.2H2O” the “QLn^L (%) (NIR)” value [1, 6] was 7.5(1) · 10^−2%, the “QLn^L (%) (visible)” value [1, 6] was 0.85(1) % and the τobs/μs [2] was 15.0(1) μs. The λem/nm [3] was 575 nm.
In the case of “[ErGa4(shi)4(H2shi)2(C5H5N)5].(NO3).(C5H5N) [Ga4Ershi6]”, the “QLn^L/% NIR” value ([1]; solid state Ga4Ln(shi)6) is reported as 1.55(3) · 10^−3% and the τ/μs ([2]; solid state Ga4Ln(shi)6) is reported as 0.220(3) μs.
